≈ marks a conversion by molar mass, not a printed value.
Legend:
[1] = Selectivity ratio of IC50 for human THP1 cells to MIC for isoniazid-, rifampin-, amikacin-, OLF-resistant Mycobacterium tuberculosis isolate J; format: functional, THP-1
[2] = Selectivity ratio of IC50 for human THP1 cells to MIC for isoniazid-, rifampin-resistant Mycobacterium tuberculosis isolate D; format: functional, THP-1
[3] = Selectivity ratio of IC50 for human THP1 cells to MIC for isoniazid-, rifampin-,streptomycin-resistant Mycobacterium tuberculosis isolate E; format: functional, THP-1
[4] = tested on: Mycobacterium tuberculosis; assay: Antituberculosis activity against isoniazid-resistant Mycobacterium tuberculosis isolate B; format: functional
[5] = tested on: Mycobacterium tuberculosis; assay: Antituberculosis activity against isoniazid-resistant Mycobacterium tuberculosis isolate C; format: functional
[6] = tested on: Mycobacterium tuberculosis; assay: Antituberculosis activity against isoniazid-, rifampin-resistant Mycobacterium tuberculosis isolate D; format: functional
[7] = tested on: Mycobacterium tuberculosis; assay: Antituberculosis activity against isoniazid-, rifampin-,streptomycin-resistant Mycobacterium tuberculosis isolate E; format: functional
[8] = tested on: Mycobacterium tuberculosis; assay: Antituberculosis activity against isoniazid-, rifampin-,ethambutol-resistant Mycobacterium tuberculosis isolate F; format: functional
[9] = tested on: Mycobacterium tuberculosis; assay: Antituberculosis activity against isoniazid-, rifampin-,ethambutol-resistant Mycobacterium tuberculosis isolate G; format: functional
[10] = tested on: Mycobacterium tuberculosis; assay: Antituberculosis activity against isoniazid-, rifampin-, amikacin-, OLF-resistant Mycobacterium tuberculosis isolate H; format: functional
[11] = tested on: Mycobacterium tuberculosis; assay: Antituberculosis activity against isoniazid-, rifampin-,kanamycin-,OLF-resistant Mycobacterium tuberculosis isolate I; format: functional
[12] = tested on: Mycobacterium tuberculosis; assay: Antituberculosis activity against isoniazid-, rifampin-, amikacin-, OLF-resistant Mycobacterium tuberculosis isolate J; format: functional
[13] = Selectivity ratio of IC50 for human THP1 cells to MIC for INH-resistant Mycobacterium tuberculosis isolate B; format: functional, THP-1
[14] = Selectivity ratio of IC50 for human THP1 cells to MIC for INH-resistant Mycobacterium tuberculosis isolate C; format: functional, THP-1
[15] = Selectivity ratio of IC50 for human THP1 cells to MIC for isoniazid-, rifampin-,ethambutol-resistant Mycobacterium tuberculosis isolate F; format: functional, THP-1
[16] = Selectivity ratio of IC50 for human THP1 cells to MIC for isoniazid-, rifampin-,ethambutol-resistant Mycobacterium tuberculosis isolate G; format: functional, THP-1
[17] = Selectivity ratio of IC50 for human THP1 cells to MIC for isoniazid-, rifampin-, amikacin-, OLF-resistant Mycobacterium tuberculosis isolate H; format: functional, THP-1
[18] = Selectivity ratio of IC50 for human THP1 cells to MIC for isoniazid-, rifampin-,kanamycin-,OLF-resistant Mycobacterium tuberculosis isolate I; format: functional, THP-1

Structure (SMILES)	Selectivity ratio [1]	Selectivity ratio [2]	Selectivity ratio [3]	MIC [4]	MIC [5]	MIC [6]	MIC [7]	MIC [8]	MIC [9]	MIC [10]	MIC [11]	MIC [12]	Selectivity ratio [13]	Selectivity ratio [14]	Selectivity ratio [15]	Selectivity ratio [16]	Selectivity ratio [17]	Selectivity ratio [18]
Cc1ccnc(NC(=O)NS(=O)(=O)c2cc(NC(=O)CCl)ccc2Cl)n1	10	10	10	10 µg/mL (≈ 23.9 µM)	10 µg/mL (≈ 23.9 µM)	10 µg/mL (≈ 23.9 µM)	10 µg/mL (≈ 23.9 µM)	10 µg/mL (≈ 23.9 µM)	10 µg/mL (≈ 23.9 µM)	10 µg/mL (≈ 23.9 µM)	10 µg/mL (≈ 23.9 µM)	10 µg/mL (≈ 23.9 µM)	10	10	10	10	10	10
COc1ccnc(NC(=O)NS(=O)(=O)c2cc(NC(=O)CCl)ccc2Cl)n1	10	10	10	10 µg/mL (≈ 23 µM)	10 µg/mL (≈ 23 µM)	10 µg/mL (≈ 23 µM)	10 µg/mL (≈ 23 µM)	10 µg/mL (≈ 23 µM)	10 µg/mL (≈ 23 µM)	10 µg/mL (≈ 23 µM)	10 µg/mL (≈ 23 µM)	10 µg/mL (≈ 23 µM)	10	10	10	10	10	10

Source: ChEMBL document CHEMBL1949543, “Synthesis and evaluation of novel monosubstituted sulfonylurea derivatives as antituberculosis agents” (Eur J Med Chem, 2012)
